Assay results taken from patent publication US9645134B1, “Isotopically-labeled solvents and the use of same in testing e-cigarettes” (Celerion, Inc., priority 2013, dated 2017).
Like-named read-outs stand apart in the source and are kept apart here.

Experiments:
[1] = clinical study: plasma labeled and unlabeled PG by LC-MS/MS after vaporizer use or second-hand exposure; format: in vivo, human
Excerpt: A clinical study protocol was generated. The objectives of this study were to measure C13-labeled PG in blood and to evaluate the extent of second-hand exposure to PG and nicotine during use of a commercially-available electronic nicotine delivery system (vaporizer).
All subjects completed screening procedures and checked in to the clinic on the morning of the Test Visit. All subjects remained in the clinic until the completion of the final study procedure later that day.
Following completion of check-in procedures, all subjects were seated in a room together approximately 30 minutes prior to the start of product administration. Subjects in the vaping group began using the vaporizers as directed by the clinic staff—one inhalation at least 3 seconds in duration every 30 seconds for a total of 30 inhalations. Each vaporizer contained a 1.8 v/v % nicotine solution in a PG vehicle. […]
The samples were kept at room temperature prior to centrifuge, and were centrifuged at 2500 RPM for 15 minutes at 4° C. within 60 minutes of collection. […] (+/− 10° C.) or below (within 90 minutes from collection) until analyzed by Celerion Bioanalytical Services. […]
Plasma PG (labeled and unlabeled) and nicotine were analyzed by LC-MS/MS using analytical methods with appropriate quality controls in accordance with FDA Good Laboratory Practice (GLP) regulations (Title 21 CFR Part 58). […]

[2] = test system: rabbit; settings: cited from earlier work
[3] = in vivo; cited from earlier work

**Q.** For `[13CH3][13CH](O)[13CH2]O` (stereo not drawn) [Species A3, Propyleneglycol-^13C3], which “blood concentration of labeled propylene glycol” value ([1]; non-vaping subjects (Subjects 4-6), in room with vaping subjects, FIG. 2) is on record?
**A.** The value was “essentially no detectable levels”.

**Q.** With `OCC(O)CO` [glycerol, propane-1,2,3-triol] as the compound, how does the “acute oral toxicity LD50” value ([2]; in vivo, po) read?
**A.** The value was 10,000 mg/kg.

**Q.** Which “blood concentration of unlabeled propylene glycol” value ([1]; all subjects (Subjects 1-6), meal high in PG at about 4 hours, FIG. 3) does the source give for propane-1,2-diol [propylene glycol] here?
**A.** Its value is “significant”.

**Q.** And the “excreted by the kidneys unchanged or as the glucuronide conjugate” value [3]?
**A.** The value was “approximately 45%”.

**Q.** What about the half-life [3] of the same compound?
**A.** Its half-life is “approximately 4 hours”.

**Q.** And the “acute oral toxicity LD50” value ([2]; oral)?
**A.** The value was 18500 mg/kg.
